Assay [1] has as its system MB-1 cells co-cultured with OP9 cells. Briefly: Apoptosis detection with NucView 488 Caspase-3 Assay Kit in co-culture of MB-1 cells and OP9 cells. The assay is classed as cell-based, human. The following applies: for Apoptosis induction of MB-1 cells (%): NucView 488 positive cells. As to the method:
To a 12-well plate, OP9 cells treated with MMC were seeded at a density of 1.6×10^5 cells per well. After culture was performed for one day, MB-1 cells were seeded at a density of 8.0×10^4 cells per well. After culture was performed for two days, Stelliferin A was added in a concentration of 0.4 μg/mL. After culture was performed for one day, imatinib was added in a concentration of 0.2 μM or 1.0 μM. After culture was performed for one day, apoptosis was detected in the manner described below.
Apoptosis was detected by use of NucView 488 Caspase-3 Assay Kit for Live Cells (Biotium, USA) or a fluorescent reagent JC-1 (Cayman Chemical, USA) which detects mitochondrial membrane potential difference.
In evaluation by NucView 488, 0.05% trypsin-EDTA was added to individual wells. After incubation for 4 minutes, the culture liquid was added. Aliquots were separately taken and then centrifuged (1,200 rpm, 4 minutes) to collect cells. Each of the suspensions of the cells collected was controlled so as to obtain a density of 1.0×10^6 cells per mL. Aliquots (200 μL) were separately taken from the suspensions. To the cells thus taken, 5 μL of NucView 488 substrate stock solution of NucView 488 Caspase-3 Assay Kit for Live Cells was added and incubated in the darkness at normal temperature for 20 minutes. Culture liquid (300 μL) was added and subjected to analysis by a cell sorter (Type SH-800, SONY Corporation, Tokyo). The ratio of green fluorescent positive cells per each well was calculated.

Assay [2] deals with MB-1 cells. Briefly: Apoptosis inducing action by imatinib alone in culture system of MB-1 cells alone (NucView 488). The assay is classed as cell-based, human. The following applies: imatinib 0.2 μM or 1.0 μM, one day; compared to MB-1 cells co-cultured in the absence of Stelliferin A. Here is the method: Apoptosis inducing action by imatinib alone in a culture system of MB-1 cells alone was evaluated.
From a co-culture system with OP9 cells, MB-1 cells were purified by a cell sorter and seeded to 12-well plates at a density of 2.0×10^5 cells per well, and then, imatinib was added in a concentration of 0.2 μM or 1.0 μM. After culture was performed for one day, apoptosis was detected in the manner described below.
Apoptosis was detected by use of NucView 488 Caspase-3 Assay Kit for Live Cells (Biotium, USA) in the same manner as in the apoptosis detection performed in the co-culture system of MB-1 cells and OP9 cells.

For assay [3], the system named is MB-1 cells co-cultured with OP9 cells. Briefly: Screening for cobblestone area (CA) formation inhibitory activity in co-culture of OP9 cells and MB-1 cells. The class given is cell-based, human. The following applies: OP9/MB-1 co-culture, 48 hours incubation with sample; tested at 10, 2, 0.4 and 0.08 μg/mL; microscopic observation. As to the method: In individual wells of a 96-well plate, OP9 cells (9.0×10^3) treated with 3 μg/mL mitomycin C (Sigma-Aldrich Co. LLC., USA) for 3 hours (37° C., 5% CO2) were seeded and incubated at 37° C. under 5% CO2. The culture liquid used herein was α MEM (Gibco) containing 20% inactivated FBS (MP Biomedicals, LLC., USA) and 1% penicillin-streptomycin (P/S, Gibco, Thermo Fisher Scientific Inc., USA). The following day, to the individual wells having OP9 cells seeded therein, MB-1 cells (2.5×10^3) were seeded. In the co-culture of the OP9 cells and MB-1 cells, the culture liquid used herein was α MEM containing 10% inactivated FBS (Biowest SAS, France), 1% P/S, 1% non-essential amino acids (NEAA, Invitrogen, Thermo Fisher Scientific Inc.) and 10 μM β-mercaptoethanol (Gibco). Forty-eight hours later, a Porifera sample (2 μL) dissolved in DMSO was added and diluted five times to prepare four solutions different in concentration (10 μg/mL, 2 μg/mL, 0.4 μg/mL and 0.08 μg/mL). After incubation was performed for 48 hours at 37° C. under 5% CO2, fixation was performed with 4% paraformaldehyde (Wako Pure Chemical Industries, Ltd.), nuclear-staining was performed with Hoechst 33342 (Dojindo Laboratories, Kumamoto) and observation was made with a microscope (Type IX71, Olympus Corporation Ltd., Tokyo). […]

Assay [4] shares this test system. Briefly: Apoptosis detection with JC-1 mitochondrial membrane potential reagent in co-culture of MB-1 cells and OP9 cells. The class given is cell-based, human. As to the method: The effect of the Stelliferin compound on CA formed by co-culture of OP9 cells (serving as support cells for the CA formation in the mouse mesenchymal cells) and MB-1 cells was examined by apoptosis detection reagent JC-1.
To a 24-well plate, OP9 cells treated with MMC were seeded at a density of 8.0×10^4 cells per well. After culture was performed for one day, MB-1 cells were seeded at a density of 4.0×10^4 cells per well. After culture was performed for two days, Stelliferin A was added in a concentration of 0.4 μg/mL. After culture was performed for one day, imatinib was added in a concentration of 1.0 μM. After culture was performed for one day, apoptosis was detected in the manner described below.
Apoptosis was detected by JC-1 Mitochondrial Membrane Potential Assay Kit. To each well, 50 μL of JC-1 Reagent of JC-1 Mitochondrial Membrane Potential Assay Kit was added and incubation was carried out for 20 minutes. Thereafter, 0.05% trypsin-EDTA was added to each well and incubation was carried out for 4 minutes. After a culture liquid was added, aliquots were separately taken and then centrifuged (1,200 rpm, 4 minutes) to collect cells. The collected cells were separately suspended in 300 μL of a culture liquid and analyzed by a cell sorter (Type SH-800, SONY Corporation, Tokyo). The ratios of red fluorescent negative cells in individual wells were calculated.

Assay [5] shares this test system. Put plainly: Stereoscopic positional relationship between mCherry OP9 cells and GFP MB-1 cells by confocal microscope. The assay is classed as cell-based, human. The following applies: Stelliferin A 0.4 μg/mL, two days. Here is the method: The effect of a Stelliferin compound on the stereoscopic positional relationship between OP9 cells (which serve as support cells in CA formation in the mouse mesenchymal cells) and MB-1 cells was examined by using OP9 cells and MB-1 cells to which fluorescent proteins were separately introduced.
To a 35-mm dish having a glass bottom, OP9 cells, which were treated with MMC and to which fluorescent protein mCherry was introduced, were seeded at a density of 4.0×10^5 cells. After culture was performed for one day, fluorescent protein GFP introduced MB-1 cells were seeded at a density of 2.0×10^5 cells. After culture was performed for two days, Stelliferin A was added in a concentration of 0.4 μg/mL. After culture was performed for two days, the stereoscopic positional relationship between the cells was photographed with a confocal microscope (Type IX81, Olympus Corporation), and examined.

Assay [6] concerns TF-1 cells co-cultured with OP9 cells. Briefly: Niche (CA) formation suppression in co-culture of TF-1 cells and OP9 cells. The class given is cell-based, human. The following applies: TF-1/OP9 co-culture; Stelliferin A at 0.4 μg/mL, two days. Here is the method: In order to verify that the action of Stelliferin A to suppress niche formation by MB-1 cells is not specific to MB-1 cells, the actions of a fat-soluble fraction of S12111 and Stelliferin A against niche formation by TF-1 cells were evaluated in a co-culture system of TF-1 cells (which have leukemic stem-cell-like characteristics similarly to MB-1 cells) and OP9 cells.
The experiment was carried out basically in the same manner as employed in the evaluation with MB-1 cells mentioned above except that TF-1 cells (strain derived from human bone marrow erythroleukemia cells) were used in place of MB-1 cells. In evaluation of Stelliferin A, more specifically, evaluation of niche formation suppressive action of Stelliferin A in the co-culture system of TF-1 cells and OP9 cells, OP9 cells (8.0×10^4) treated with MMC were seeded in individual wells of a 24-well plate. After culture was performed for one day, TF-1 cells (4.0×10^4) were seeded. The culture liquid used herein was IMDM (Gibco) containing 10% inactivated FBS (Biowest SAS, France) and 1% P/S. After culture was performed for one day, medium was exchanged. After culture was performed for further one day, Stelliferin A was added in a concentration of 0.4 μg/mL. After culture was performed for two days, the presence or absence of CA formation was observed by a microscope.

For assay [7], the system named is MB-1 cells co-cultured with OP9 cells. Put plainly: CA reformation after Stelliferin A treatment of OP9/MB-1 co-culture and exchange of culture medium. The class given is cell-based, human. The following applies: Stelliferin A 0.4 μg/mL Day 4 to Day 6, fresh medium without it, examined Day 8. Here is the method: (§1) On Day 1, OP9 cells were seeded in a culture medium in the same manner as above and incubated. On Day 2, MB-1 cells were seeded and co-cultured with the OP9 cells. On day 4, Stelliferin A was added so as to be 0.4 μg/mL and incubated.

Assay [8] deals with MB-1 cells. Put plainly: CA reformation when free MB-1 cells from treated co-culture are co-cultured with fresh OP9 cells. The assay is classed as cell-based, human. The following applies: Stelliferin A 0.4 μg/mL Day 4 to Day 6, then co-culture in the absence of Stelliferin A, examined Day 8. Here is the method: as §1
The subject of the next assay is OP9 cells. Put plainly: CA formation when OP9 cells exposed to Stelliferin A are co-cultured with unexposed MB-1 cells. The assay is classed as cell-based, mouse. The following applies: OP9 cells exposed to 0.4 μg/mL Day 2 to Day 4, then unexposed MB-1 cells; compared to unexposed control. As to the method: On Day 1, OP9 cells were seeded in a culture medium in the same manner as above and incubated. On Day 2, Stelliferin A was added so as to be 0.4 μg/ml, and incubated. On Day 4, fresh MB-1 cells not exposed to Stelliferin A were seeded and co-cultured. On Day 6, whether CA was formed or not was examined. Also, for comparison, CA formation was examined in a control system where OP9 cells and MB-1 cells were co-cultured in the absence of Stelliferin A in accordance with the above schedule.

Entries after “also recorded” stand apart in the source; their conditions may differ.

For `Cc1ccc(NC(=O)c2ccc(CN3CCN(C)CC3)cc2)cc1Nc1nccc(-c2cccnc2)n1` [Imatinib, imatinib, reference compound], the “Apoptosis induction of MB-1 cells (%)” value came out at 8.07% in assay [1] (imatinib 0.2 μM, Stelliferin A absent) and 12.14% in [1] (imatinib 1.0 μM, Stelliferin A absent). Besides, in the assay on MB-1 cells [2], the “Sensitivity of MB-1 cells cultured alone to imatinib (apoptosis)” value is given as “high sensitivity”.

As for Stelliferin B, the “CA formation inhibitory activity” value in assay [3] was determined as 0.08 µg/mL.

In the case of Stelliferin A, the “CA formation inhibitory activity” value in [3] amounted to 0.08 µg/mL. Also, the “Apoptosis induction of MB-1 cells (%)” value was 22.39% in [1] (Stelliferin A present at 0.4 μg/mL plus imatinib 0.2 μM); 44.63% in [1] (Stelliferin A present at 0.4 μg/mL plus imatinib 1.0 μM); 16.03% in [1] (Stelliferin A present at 0.4 μg/mL, imatinib absent). For the same molecule, in assay [1] (presence of Stelliferin A with imatinib 0.2 μM and 1.0 μM compared to absence of Stelliferin A), the “Ratio of MB-1 cells which induced apoptosis / NucView peak representing caspase 3 activity” value was “increased depending on each of the concentrations of Stelliferin A and imatinib; also recorded: statistically significantly (Student t test, p<0.05) increased”. In addition, the “Apoptosis induction (JC-1, mitochondrial membrane potential difference disappeared)” value in assay [4] (co-presence of Stelliferin A 0.4 μg/mL and imatinib 1.0 μM) is on record as “apoptosis was induced”. For the same molecule, in [4] (in the presence of Stelliferin A, imatinib dose varied), the “Apoptosis induction (JC-1) when dose of imatinib was changed” value was “apoptosis was also induced in the dose-dependent manner of imatinib”. Further, in [5], the “Position of MB-1 cells relative to OP9 cell layer” value is on record as “MB-1 cells were exposed to the upper side of the OP9 cell layer”. Further, the “Niche formation by TF-1 cells” value in [6] is on record as “suppressed niche formation by TF-1 cells”. Besides, the “CA reformation after removal of Stelliferin A” value in assay [7] is reported as “CA was not reformed”. For the same molecule, the “CA reformation of treated free MB-1 cells with fresh OP9 cells” value in the assay on MB-1 cells [8] is on record as “CA was reformed”. Further, in the assay on OP9 cells, the “Number of CAs formed with OP9 cells exposed to Stelliferin A” value is listed as “the number of CAs formed was low”.
